Where a name gives a salt, the structure may show the parent alone. One block for each molecule: values may come before it.
How the values were obtained:
rats [1] = assay: Hypotensive effect in anesthetized rats (mean blood pressure); assay type: in vivo, male Sprague-Dawley rat; settings: rat, 10 mg/kg, i.d. N = 2; from value before administration (100%)
Description: Test Example 2. The Hypotensive Effect in Rats
After a male Spraque-Dawley rat (two […]/group) anesthetized with urethane was fixed in the supine position, a cannula was inserted into trachea and the rat was artificially ventilated under the conditions of a tidal volume of […] and 60 breathes/min. The carotid artery and the duodenum were cannulated for measuring blood pressure and administering a drug, respectively. The drug was dissolved in distilled water and administered duodenally using the above cannula. Mean blood pressure (mBP) until […] after the drug-administration was measured and the maximum lowering rate (%) from the value before the drug-administration (100%) was determined. No change of mBP was observed during 30 minutes in case of administrating distilled water.

[2] = molecular target: T1, PDE V (cGMP-specific PDE) (Canis lupus familiaris, UniProt O77746); assay: Inhibitory activity on PDE V derived from canine tracheal smooth muscle; assay type: biochemical; settings: Compound conc.: 1 nM; substrate 1.0 μM [3H]cGMP; read-out: PDE V inhibitory activity, Inhibition rate (%)
T1 construct: purified from canine tracheal smooth muscle; from tissue; host or cells: canine tracheal smooth muscle
Description: Hereinafter, PDE inhibitory activity and pharmacological activity of the representative Compounds (I) are described in more detail by Test Examples. Test Example 1. The inhibitory activity on PDE derived from canine tracheal smooth muscle
(1) Purification of an Enzyme
According to the method of Torphy et al. [Mol. Pharmacol., 37, 206 (1990)], PDE V (cGMP-specific PDE) was purified from canine tracheal smooth muscle.
(2) Measurement of PDE Activity
The activity was measured based on the method of Kincaid et-al. [J. D. Corbin et al., Methods Enzymol., 159, 457(1988), Academic Press, New York]. The measurement was carried out using, as a substrate, 1.0 μM [^3 H]cGMP, and the reaction was carried out in a buffer having the following composition:
50 mM N,N-bis(2-hydroxyethyl)-2-aminoethanesulfonic acid (pH 7.2), 1 mM MgCl2, 0.1 mg/ml soybean trypsin inhibitor.
The reaction was started by addition of the enzyme and stopped by addition of hydrochloric acid after reacting for 10 to 30 minutes at 30° C. Thereafter, sodium hydroxide was added for neutralization and 5'-GMP was converted into guanosine using 5'-nucleotidase. The reaction solution was subjected to DEAE-Sephadex A-25 column. [^3 H]Guano sine was eluted with distilled water and the radioactivity was measured with a liquid scintillation counter. The inhibitor was dissolved in 1.7% DMSO.

rats [3] = assay: Effect on developed cavernous pressure and duration of tumescence in rats; assay type: in vivo, male Sprague-Dawley rat; settings: 20 μg/rat, injected into the cavernous body; for DCP (developed cavernous pressure), Pre / DT (duration of tumescence), Pre: before administration; for DCP (developed cavernous pressure), 6-min / DT (duration of tumescence), 6-min: six minutes after administration
Description: Test Example 3. Effect of Developed Cavernous Pressure and Duration of Tumescence in Rats
A male Sprague-Dawley rat was anesthetized with urethane (1.3 g/kg) subcutaneously injected into the back of the neck. The perineal incision was performed and the right crus of the penis was exposed. For measurement of cavernous pressure, a needle (25G) attached to a polyethylene tube (PE50) filled with a heparin solution was inserted into the right crus. The polyethylene tube was connected to a pressure transducer (MPC-500, Millar Instruments) and cavernous pressure was amplified with an amplifier (AP-621G, Nihon Kohden) and then recorded on a pen recorder (LR4220, Yokokawa Denki). The abdomen was incised and cavernous nerves on the prostate was exposed. The nerve was placed on a bipolar tungsten electrode and stimulated by current pulses(frequency; 20 Hz, duration; 0.2 ms, strength; 3 to 5 V) for 50 seconds with an electric stimulator (SEN-3201, Nihon Koden) to induce increases in cavernous pressure. The test compounds were dissolved in distilled water (DW) or 0.01 N hydrochloric acid at a concentration of 1 mg/ml and injected into the cavernous body(0.02 ml/rat) with a needle (27G). Before(Pre) and six minutes after administration (6-min). of distilled water (DW) or the test compounds, the nerve was stimulated, and developed cavernous pressure (DCP) and the duration of tumescence (DT) were measured. DT was defined as the time from the start of stimulation to 50% of the peak cavernous pressure after the end of stimulation.

Compound: CCn1c(=O)[nH]c2cc3c(NCc4ccc(NC)cc4)ncnc3cc21 [Compound 2, 3-Ethyl-8-(4-methylaminobenzylamino)-2,3-dihydro-1H-imidazo[4,5-g]quinazoline-2-one 2 hydrochloride]
Hypotensive activity, Maximum lowering rate (%) of mean blood pressure (rats [1]): 19.7%

Compound: CCn1c(=O)[nH]c2cc3c(NCc4ccc(NCc5ccccc5)cc4)ncnc3cc21 [Compound 3, 8-(4-Benzylaminobenzylamino)-3-ethyl-2,3-dihydro-1H-imidazo[4,5-g]quinazoline-2-one 2 hydrochloride]
inhibition at 0.001 µM [2]: 62%

Compound: CCNc1ccc(CNc2ncnc3cc4c(cc23)[nH]c(=O)n4CC)cc1 [Compound 6, 3-Ethyl-8-(4-ethylaminobenzylamino)-2,3-dihydro-1H-imidazo[4,5-g]quinazoline-2-one 2 hydrochloride]
inhibition at 0.001 µM [2]: 37%

Compound: CCn1c(=O)[nH]c2cc3c(NCc4ccccc4N4CCSCC4)ncnc3cc21 [Compound 15, 3-Ethyl-8-(2-thiomorpholinobenzylamino)-2,3-dihydro-1H-imidazo[4,5-g]quinazoline-2-one 1 hydrochloride]
Hypotensive activity, Maximum lowering rate (%) of mean blood pressure (rats [1]): 19.8%

Compound: CCn1c(=S)[nH]c2cc3c(NCc4ccccc4NC)ncnc3cc21 [Compound 22, 3-Ethyl-8-(2-methylaminobenzylamino)-2,3-dihydro-1H-imidazo[4,5-g]quinazoline-2-thione 2 hydrochloride]
inhibition at 0.001 µM [2]: 91%

Compound: CCCNc1ccc(CNc2ncnc3cc4c(cc23)[nH]c(=S)n4CC)cc1 [Compound 26, 3-Ethyl-8-(4-propylaminobenzylamino)-2,3-dihydro-1H-imidazo[4,5-g]quinazoline-2-thione 2 hydrochloride]
DCP (developed cavernous pressure), Pre (rats [3]): 21.5 mmHg
DT (duration of tumescence), Pre (rats [3]): 3.8 s
DCP (developed cavernous pressure), 6-min (rats [3]): 27.7 mmHg
DT (duration of tumescence), 6-min (rats [3]): 22.9 s

Compound: CCn1c(=S)[nH]c2cc3c(NCc4ccccc4N4CCN(C)CC4)ncnc3cc21 [Compound 36, 3-Ethyl-8-[2-(4-methyl-1-piperazinyl)benzylamino]-2,3-dihydro-1H-imidazo[4,5-g]quinazoline-2-thione 3 hydrochloride]
Hypotensive activity, Maximum lowering rate (%) of mean blood pressure (rats [1]): 17.6%

Compound: CCn1c(=S)[nH]c2cc3c(NCc4cccc(N5CCN(C)CC5)c4)ncnc3cc21 [Compound 40, 3-Ethyl-8-[3-(4-methyl-1-piperazinyl)benzylamino]-2,3-dihydro-1H-imidazo[4,5-g]quinazoline-2-thione 3 hydrochloride]
Hypotensive activity, Maximum lowering rate (%) of mean blood pressure (rats [1]): 16.1%

More lines, main results first:

inhibition at 0.001 µM [2]: 88%
Compound: CCn1c(=S)[nH]c2cc3c(NCc4ccc(NCc5ccccc5)cc4)ncnc3cc21 [Compound 24, 8-(4-Benzylaminobenzylamino)-3-ethyl-2,3-dihydro-1H-imidazo[4,5-g]quinazoline-2-thione 2 hydrochloride]

inhibition at 0.001 µM [2]: 97%
Compound: CCNc1ccc(CNc2ncnc3cc4c(cc23)[nH]c(=S)n4CC)cc1 [Compound 27, 3-Ethyl-8-(4-ethylaminobenzylamino)-2,3-dihydro-1H-imidazo[4,5-g]quinazoline-2-thione 2 hydrochloride]

inhibition at 0.001 µM [2]: 97%
Compound: CCn1c(=S)[nH]c2cc3c(NCc4ccccc4NCCO)ncnc3cc21 [Compound 30, 3-Ethyl-8-[2-(2-hydroxyethylamino)benzylamino]-2,3-dihydro-1H-imidazo[4,5-g]quinazoline-2-thione 2 hydrochloride]

inhibition at 0.001 µM [2]: 98%
Compound: CCn1c(=S)[nH]c2cc3c(NCc4ccccc4N4CCOCC4)ncnc3cc21 [Compound 33, 3-Ethyl-8-(2-morpholinobenzylamino)-2,3-dihydro-1H-imidazo[4,5-g]quinazoline-2-thione 1 hydrochloride]

inhibition at 0.001 µM [2]: 95%
Compound: CCn1c(=S)[nH]c2cc3c(NCc4ccccc4N4CCC(CO)CC4)ncnc3cc21 [Compound 34, 3-Ethyl-8-[2-(4-hydroxymethylpiperidino)benzylamino]-2,3-dihydro-1H-imidazo[4,5-g]quinazoline-2-thione 2 hydrochloride]
DCP (developed cavernous pressure), Pre (rats [3]): 23.9 ± 2.0 mmHg
DT (duration of tumescence), Pre (rats [3]): 3.3 ± 0.9 s
DCP (developed cavernous pressure), 6-min (rats [3]): 31.1 ± 4.7 mmHg
DT (duration of tumescence), 6-min (rats [3]): 16.9 ± 2.4 s

inhibition at 0.001 µM [2]: 95%
Compound: CCn1c(=S)[nH]c2cc3c(NCc4ccccc4N4CCCCC4)ncnc3cc21 [Compound 35, 3-Ethyl-8-(2-piperidinobenzylamino)-2,3-dihydro-1H-imidazo[4,5-g]quinazoline-2-thione 2 hydrochloride]
DCP (developed cavernous pressure), Pre (rats [3]): 22.6 mmHg
DT (duration of tumescence), Pre (rats [3]): 1.6 s
DCP (developed cavernous pressure), 6-min (rats [3]): 21.2 mmHg
DT (duration of tumescence), 6-min (rats [3]): 8.1 s
